Experimental data from patent publication US20240058335A1, “METHODS FOR TREATMENT OF CANCER USING ABL INHIBITORS AND DRUGS TARGETING THE MEVALONATE PATHWAY” (Duke University, priority 2021, published 2024).

Tests used:
PC9 GR4 cells = experiment: Cell viability dose-response assay (CellTiter-Glo), IC50 calculation; assay type: cell-based, human; conditions: PC9 GR4; dose-response assay; read-out: Calculated IC50
H460 cells = experiment: as above; assay type: cell-based, human; conditions: H460; dose-response assay; read-out: Calculated IC50
H358 cells = experiment: as above; assay type: cell-based, human; conditions: H358; dose-response assay; read-out: Calculated IC50
PC9 BrM3 cells = experiment: as above; assay type: cell-based, human; conditions: PC9 BrM3; dose-response assay; read-out: Calculated IC50
[1] = tested on: PC9, PC9 GR4 and H460 cells; experiment: MitoSOX staining, mitochondrial ROS by FACS; assay type: cell-based, human; conditions: EGFR mutant PC9 and PC9 GR4 cells, IC50 doses, 24 hours
[2] = tested on: lung cancer cells (PC9, PC9 GR4, PC9 BrM3, H460, H358); experiment: 72 hr growth inhibition / cell viability assay with drug combinations and metabolite rescue; assay type: cell-based, human; conditions: PC9-BrM3, sub-therapeutic doses, 72 hrs
HCC1954-LCC1 cells = experiment: Intracranial injection model of HER2+ breast cancer brain metastasis; assay type: in vivo, mice; conditions: oral gavage
Protocol: Nude mice were injected intracranially with HCC1954-LCC1 cells on Day 0. On Day 10, mice were divided evenly between treatment groups (Vehicle or GNF5) based on tumor burden and weight. Tumors were monitored weekly by BLI until experimental endpoint (Day 55). (FIG. 15A) Overall survival curve of nude mice injected intracranially with HCC1954-LCC1 and treated with vehicle (n=9) or GNF5 (n=10) and representative BLI images of mice at day 33 post-injection. (FIG. 16B) Overall survival curve of nude mice injected intracranially with HCC1954-LCC1 ABL1/2 KO (n=15) or control cells (n=15) and representative of BLI images of mice at day 21 post-injection. Statistical analysis was performed using Log-rank (Mantel-Cox) test.

PC9 cells = conditions: read-out: Calculated IC50, dose-response assay

**Q.** Which IC50 (PC9 GR4 cells) does the source give for `O=C(NCCO)c1cccc(-c2cc(Nc3ccc(OC(F)(F)F)cc3)ncn2)c1` [GNF5] here?
**A.** Its IC50 is 10 µM.

**Q.** And the IC50 (H460 cells)?
**A.** The IC50 was 15 µM.

**Q.** And the IC50 (H358 cells)?
**A.** The IC50 was 15 µM.

**Q.** And the IC50 (PC9 BrM3 cells)?
**A.** The IC50 was 10 µM.

**Q.** And the “mitochondrial reactive oxygen species (MitoROS) levels” value [1]?
**A.** Its value is “increased”.

**Q.** What about the “cell survival in the presence of statins” value [2] of the same compound?
**A.** The value was “decreased cell survival”.

**Q.** And the animal survival (HCC1954-LCC1 cells)?
**A.** Its animal survival is “markedly increased animal survival”.

**Q.** And the “metastatic outgrowth and brain colonization (BLI)” value (HCC1954-LCC1 cells)?
**A.** The value was “impaired metastatic outgrowth and colonization of the brain parenchyma”.

**Q.** And the IC50 (PC9 cells)?
**A.** The IC50 was 10 µM.
